Patent US20150307520A1, “NOVEL HETEROARYL AND HETEROCYCLE COMPOUNDS, COMPOSITIONS AND METHODS THEREOF” (HUTCHISON MEDIPHARMA LIMITED, priority 2012, published 2015)

What was measured:
Format in all cases: biochemical
p110β/p85α = p110β/p85α (Homo sapiens, UniProt P42338); assay: Transcreener KINASE Assay, kinase inhibition of p110β/p85α; details: for PI3Kβ IH % @ 1 uM: 1 uM test compound; for IC50: read-out: PI3Kβ IC50
In short: (§1)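 Steps: compound (2% DMSO final) plus enzyme in HEPES/NaCl/EGTA/CHAPS/3 mM MgCl2/1 mM DTT buffer; start with PIP2/ATP addition (30 uM/10 uM solution); 80 min RT; add ADP detection mix, 60 min RT; read fluorescence polarization.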

p110δ/p85α = p110δ/p85α (Homo sapiens, UniProt O00329); assay: Transcreener KINASE Assay, kinase inhibition of p110δ/p85α; details: for PI3Kδ IH % @ 1 uM: 1 uM test compound; for IC50: read-out: PI3Kδ IC50
In short: as §1

p110γ = p110γ (Homo sapiens, UniProt P48736); assay: Transcreener KINASE Assay, kinase inhibition of p110γ; details: for PI3Kγ IH % @ 1 uM: 1 uM test compound; for IC50: read-out: PI3Kγ IC50
In short: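 ADP-detecting fluorescence polarization immunoassay run as two-step endpoint: kinase reaction for 80 min, detection for 60 min, both at room temperature. Enzymes are recombinant p110 isoforms with p85α, except p110γ. IC50s derived from fitted inhibition curves.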

p110γ, sequence (P48736 whole entry, canonical isoform): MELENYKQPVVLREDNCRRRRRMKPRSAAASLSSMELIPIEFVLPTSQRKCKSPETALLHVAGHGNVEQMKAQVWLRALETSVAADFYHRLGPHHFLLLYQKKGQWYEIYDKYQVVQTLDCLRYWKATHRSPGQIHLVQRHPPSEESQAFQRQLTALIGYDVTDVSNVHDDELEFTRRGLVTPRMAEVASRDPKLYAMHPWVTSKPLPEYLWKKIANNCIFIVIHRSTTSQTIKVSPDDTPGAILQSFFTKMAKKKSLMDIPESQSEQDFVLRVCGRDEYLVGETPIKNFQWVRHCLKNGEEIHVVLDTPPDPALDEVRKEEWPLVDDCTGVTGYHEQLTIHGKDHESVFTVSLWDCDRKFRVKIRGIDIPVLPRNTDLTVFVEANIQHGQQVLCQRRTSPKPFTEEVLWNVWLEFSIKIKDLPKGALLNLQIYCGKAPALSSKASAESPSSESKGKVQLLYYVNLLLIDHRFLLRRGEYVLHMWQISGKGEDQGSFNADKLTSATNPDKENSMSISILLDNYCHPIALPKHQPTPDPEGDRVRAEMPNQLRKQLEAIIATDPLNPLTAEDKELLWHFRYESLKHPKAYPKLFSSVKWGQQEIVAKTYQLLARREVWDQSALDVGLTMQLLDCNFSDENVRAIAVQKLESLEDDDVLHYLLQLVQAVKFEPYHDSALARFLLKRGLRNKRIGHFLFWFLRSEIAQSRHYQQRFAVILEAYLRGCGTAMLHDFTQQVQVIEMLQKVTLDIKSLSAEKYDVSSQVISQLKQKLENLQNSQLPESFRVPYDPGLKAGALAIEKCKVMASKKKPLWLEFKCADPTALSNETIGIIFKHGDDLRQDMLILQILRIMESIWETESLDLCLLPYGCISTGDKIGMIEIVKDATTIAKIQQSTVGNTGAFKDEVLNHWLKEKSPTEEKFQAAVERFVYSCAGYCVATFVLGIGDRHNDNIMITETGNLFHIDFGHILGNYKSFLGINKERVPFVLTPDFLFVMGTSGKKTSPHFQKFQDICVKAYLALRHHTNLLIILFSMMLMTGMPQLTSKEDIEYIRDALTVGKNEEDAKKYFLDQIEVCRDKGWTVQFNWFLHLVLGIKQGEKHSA
p110β/p85α, sequence (P42338 whole entry): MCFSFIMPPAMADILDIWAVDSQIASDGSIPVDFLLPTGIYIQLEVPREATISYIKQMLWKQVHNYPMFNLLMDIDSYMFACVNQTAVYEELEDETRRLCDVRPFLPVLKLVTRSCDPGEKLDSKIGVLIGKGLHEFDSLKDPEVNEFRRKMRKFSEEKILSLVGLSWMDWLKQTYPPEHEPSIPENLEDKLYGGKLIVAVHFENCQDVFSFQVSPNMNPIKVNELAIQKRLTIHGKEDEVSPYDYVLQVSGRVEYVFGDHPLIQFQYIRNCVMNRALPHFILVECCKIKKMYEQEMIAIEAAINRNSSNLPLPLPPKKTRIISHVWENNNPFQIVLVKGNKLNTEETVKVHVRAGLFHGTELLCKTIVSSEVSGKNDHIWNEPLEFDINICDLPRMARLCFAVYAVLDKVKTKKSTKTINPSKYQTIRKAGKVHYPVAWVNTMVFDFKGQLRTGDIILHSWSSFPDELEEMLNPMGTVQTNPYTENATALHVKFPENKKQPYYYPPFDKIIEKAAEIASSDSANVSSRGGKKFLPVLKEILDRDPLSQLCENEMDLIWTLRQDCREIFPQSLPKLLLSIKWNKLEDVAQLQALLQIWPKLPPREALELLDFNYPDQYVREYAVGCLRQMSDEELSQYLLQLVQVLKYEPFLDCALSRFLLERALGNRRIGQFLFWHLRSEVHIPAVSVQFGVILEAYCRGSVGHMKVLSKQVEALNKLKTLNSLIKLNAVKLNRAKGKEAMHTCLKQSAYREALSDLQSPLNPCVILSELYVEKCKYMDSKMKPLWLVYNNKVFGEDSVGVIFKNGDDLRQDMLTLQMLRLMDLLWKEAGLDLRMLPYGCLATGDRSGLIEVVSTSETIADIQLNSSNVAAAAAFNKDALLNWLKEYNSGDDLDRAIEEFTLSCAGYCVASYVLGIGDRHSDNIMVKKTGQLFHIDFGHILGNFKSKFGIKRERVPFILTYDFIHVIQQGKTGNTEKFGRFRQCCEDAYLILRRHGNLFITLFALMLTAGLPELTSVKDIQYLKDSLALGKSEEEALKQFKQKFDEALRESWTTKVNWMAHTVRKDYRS
p110β/p85α, sequence (P27986 2-724 partner): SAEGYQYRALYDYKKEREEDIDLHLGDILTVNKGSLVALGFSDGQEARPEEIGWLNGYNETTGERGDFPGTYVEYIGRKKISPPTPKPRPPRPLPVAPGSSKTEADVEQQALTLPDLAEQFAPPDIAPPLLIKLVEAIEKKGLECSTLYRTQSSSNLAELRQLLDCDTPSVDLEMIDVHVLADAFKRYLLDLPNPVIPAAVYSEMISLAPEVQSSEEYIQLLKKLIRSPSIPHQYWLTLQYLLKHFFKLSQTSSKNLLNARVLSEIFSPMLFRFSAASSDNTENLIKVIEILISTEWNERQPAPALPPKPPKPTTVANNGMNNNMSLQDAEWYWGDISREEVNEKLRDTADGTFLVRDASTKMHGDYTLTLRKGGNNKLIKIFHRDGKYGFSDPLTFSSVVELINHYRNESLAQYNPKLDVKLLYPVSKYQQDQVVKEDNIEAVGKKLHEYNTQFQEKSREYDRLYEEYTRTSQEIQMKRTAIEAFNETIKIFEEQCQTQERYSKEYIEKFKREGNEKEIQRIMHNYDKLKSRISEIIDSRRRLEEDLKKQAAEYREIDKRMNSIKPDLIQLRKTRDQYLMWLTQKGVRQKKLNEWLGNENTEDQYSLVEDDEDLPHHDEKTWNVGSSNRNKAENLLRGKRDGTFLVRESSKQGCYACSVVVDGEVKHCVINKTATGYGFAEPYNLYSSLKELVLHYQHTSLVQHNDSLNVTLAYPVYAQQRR
p110δ/p85α, sequence (O00329 whole entry): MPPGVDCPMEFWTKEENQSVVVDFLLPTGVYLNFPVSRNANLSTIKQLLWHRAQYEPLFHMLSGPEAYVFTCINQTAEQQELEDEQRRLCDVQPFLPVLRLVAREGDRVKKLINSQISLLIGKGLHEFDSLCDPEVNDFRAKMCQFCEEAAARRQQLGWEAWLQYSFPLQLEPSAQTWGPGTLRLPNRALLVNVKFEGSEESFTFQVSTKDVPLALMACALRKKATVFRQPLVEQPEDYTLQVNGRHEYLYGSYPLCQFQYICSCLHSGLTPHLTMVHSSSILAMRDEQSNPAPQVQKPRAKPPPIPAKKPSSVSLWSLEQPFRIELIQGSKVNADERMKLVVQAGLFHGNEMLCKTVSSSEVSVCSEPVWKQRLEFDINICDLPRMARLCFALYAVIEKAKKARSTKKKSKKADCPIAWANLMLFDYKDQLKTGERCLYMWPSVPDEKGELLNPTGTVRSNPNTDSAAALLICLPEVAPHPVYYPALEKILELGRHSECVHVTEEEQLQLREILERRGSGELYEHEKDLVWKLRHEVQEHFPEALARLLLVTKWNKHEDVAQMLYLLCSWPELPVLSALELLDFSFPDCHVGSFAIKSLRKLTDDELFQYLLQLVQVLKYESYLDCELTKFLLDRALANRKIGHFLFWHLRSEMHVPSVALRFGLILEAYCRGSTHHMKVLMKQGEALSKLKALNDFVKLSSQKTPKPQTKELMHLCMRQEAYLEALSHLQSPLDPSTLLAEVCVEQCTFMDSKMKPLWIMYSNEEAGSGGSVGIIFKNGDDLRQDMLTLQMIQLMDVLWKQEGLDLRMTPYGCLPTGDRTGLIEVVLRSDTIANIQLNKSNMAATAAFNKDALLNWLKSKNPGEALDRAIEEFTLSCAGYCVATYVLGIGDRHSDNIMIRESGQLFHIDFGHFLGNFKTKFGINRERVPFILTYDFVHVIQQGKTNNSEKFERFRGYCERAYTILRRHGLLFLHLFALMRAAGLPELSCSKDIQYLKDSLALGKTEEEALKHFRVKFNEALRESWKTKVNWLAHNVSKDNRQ
p110δ/p85α, sequence (P27986 whole entry partner): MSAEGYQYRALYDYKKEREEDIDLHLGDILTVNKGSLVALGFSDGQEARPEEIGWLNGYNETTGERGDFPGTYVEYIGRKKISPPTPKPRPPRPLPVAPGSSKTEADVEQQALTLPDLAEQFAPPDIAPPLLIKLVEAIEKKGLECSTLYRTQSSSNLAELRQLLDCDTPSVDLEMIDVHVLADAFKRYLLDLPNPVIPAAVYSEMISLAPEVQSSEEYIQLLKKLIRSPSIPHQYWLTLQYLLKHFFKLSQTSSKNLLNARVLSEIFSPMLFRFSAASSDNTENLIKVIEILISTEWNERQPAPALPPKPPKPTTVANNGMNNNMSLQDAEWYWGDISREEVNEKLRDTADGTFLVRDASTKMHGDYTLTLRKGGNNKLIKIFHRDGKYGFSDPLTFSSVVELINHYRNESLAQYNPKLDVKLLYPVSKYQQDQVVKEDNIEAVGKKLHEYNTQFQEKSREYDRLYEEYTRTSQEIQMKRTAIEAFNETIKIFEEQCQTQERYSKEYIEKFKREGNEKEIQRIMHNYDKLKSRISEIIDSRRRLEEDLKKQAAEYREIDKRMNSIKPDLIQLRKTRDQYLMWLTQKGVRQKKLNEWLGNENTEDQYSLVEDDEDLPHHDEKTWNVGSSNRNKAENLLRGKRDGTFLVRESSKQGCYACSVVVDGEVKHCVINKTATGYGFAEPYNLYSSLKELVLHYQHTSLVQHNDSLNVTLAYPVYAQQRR

PI3Kβ IH % @ 1 uM (p110β/p85α)	IC50 (p110β/p85α)	PI3Kδ IH % @ 1 uM (p110δ/p85α)	IC50 (p110δ/p85α)	PI3Kγ IH % @ 1 uM (p110γ)	IC50 (p110γ)	Structure (SMILES)
92.8%	69 nM	>100%	1 nM	>100%	3 nM	COCCO[C@H]1C[C@@H](c2nn3ccc(Cl)c3c(=O)n2-c2ccccc2)N(c2ncnc3[nH]cc(C#N)c23)C1 [Compound 264, 4-((2S,4S)-2-(5-chloro-4-oxo-3-phenyl-3,4-dihydropyrrolo[2,1-f][1,2,4]triazin-2-yl)-4-(2-methoxyethoxyl)pyrrolidin-1-yl)-7H-pyrrolo[2,3-d]pyrimidine-5-carbonitrile]
75.2%	280 nM	>100%	3 nM	87.3%	7 nM	N#Cc1cnc(N)nc1N1CCC[C@H]1c1nn2ccc(F)c2c(=O)n1-c1ccccc1 [Compound 230]
58.9%	–	>100%	–	83.5%	–	CC(Nc1ncnc2[nH]cnc12)c1cn2ccc(Cl)c2c(=O)n1-c1cc(F)cc(F)c1 (centres unmarked) [Compound 80]
79.0%	217 nM	>100%	–	87.9%	–	CC(Nc1ncnc(N)c1C#N)c1cn2ccc(Cl)c2c(=O)n1-c1cc(F)cc(F)c1 (centres unmarked) [Compound 81]
32.8%	–	98.5%	52 nM	88.1%	135 nM	Nc1ncc(F)c(N2CCC[C@H]2c2nn3ccc(Cl)c3c(=O)n2-c2ccccc2)n1 [Compound 215]
88.3%	22 nM	>100%	0.1 nM	>100%	6 nM	CC(=O)c1cnc(N)nc1N1CC(C)(C)C1c1nn2ccc(Cl)c2c(=O)n1-c1ccccc1 (stereo in doubt) [Compound 484, (R)-2-(1-(5-acetyl-2-aminopyrimidin-4-yl)-3,3-dimethylazetidin-2-yl)-5-chloro-3-phenylpyrrolo[2,1-f][1,2,4]triazin-4(3H)-one]
10.4%	–	94.7%	76 nM	73.0%	467 nM	N#Cc1c[nH]c2ncnc(N3CCC[C@H]3c3nn4ccc(Cl)c4c(=O)n3CC3CCCCC3)c12 [Compound 258]
45.0%	–	>100%	8 nM	94.1%	23 nM	C[C@H]1CN(c2nc(N)ncc2Cl)[C@@H]1c1nn2ccc(Cl)c2c(=O)n1-c1ccccc1 [Compound 465]
74.0%	311 nM	>100%	20 nM	96.6%	–	C[C@H]1CN(c2ncnc3[nH]cc(C#N)c23)[C@@H]1c1nn2ccc(Cl)c2c(=O)n1-c1ccc(F)cc1 [Compound 468]
97.0%	–	>100%	–	92.5%	–	CC(=O)c1cnc(N)nc1NC(C)c1cn2ccc(F)c2c(=O)n1-c1ccccc1 (single isomer, unassigned) [Compound 452]
97.1%	27 nM	96.3%	1 nM	91.3%	2 nM	Cc1nc(N)nc(N2C[C@H](C)C2c2nn3ccc(Cl)c3c(=O)n2-c2ccccc2)c1C#N (some centres unmarked) [Compound 437]
−3.1%	–	71.9%	212 nM	63.7%	–	COc1cccc(-n2c([C@@H]3CCN3c3ncnc4[nH]cnc34)nn3ccc(Cl)c3c2=O)c1 [Compound 33]
75.6%	121 nM	>100%	2 nM	>100%	2 nM	C[C@H]1CN(c2nc(N)nc(N)c2C#N)C1c1nn2ccc(Cl)c2c(=O)n1-c1cccc(F)c1 (some centres unmarked) [Compound 504]
26.0%	–	90.1%	207 nM	11.9%	–	Nc1nc2cccc(N3CCC[C@H]3c3nn4ccc(Cl)c4c(=O)n3-c3ccccc3)n2n1 [Compound 54]
24.8%	–	99.3%	8 nM	98.0%	29 nM	Nc1nc2c(c(N3CCC[C@H]3c3nn4ccc(F)c4c(=O)n3-c3ccccc3)n1)C(=O)CCN2 [Compound 249]
82.0%	36 nM	97.6%	1 nM	>100%	7 nM	NC(=O)c1c[nH]c2ncnc(N3CCC[C@H]3c3nn4ccc(Cl)c4c(=O)n3-c3ccccc3)c12 [Compound 95]

PI3Kβ IH % @ 1 uM (p110β/p85α)	IC50 (p110β/p85α)	PI3Kδ IH % @ 1 uM (p110δ/p85α)	IC50 (p110δ/p85α)	PI3Kγ IH % @ 1 uM (p110γ)	IC50 (p110γ)	Structure (SMILES)
–	199 nM	–	3 nM	–	29 nM	O=C1C[C@@H](c2nn3ccc(Cl)c3c(=O)n2-c2ccccc2)N(c2ncnc3[nH]cnc23)C1 [Compound 381]
86.4%	159 nM	93.7%	27 nM	4.3%	–	O=c1c2c(Cl)ccn2nc([C@@H]2CCN2c2nc(N3CCOCC3)nc3[nH]cnc23)n1-c1ccccc1 [Compound 114, (S)-5-chloro-2-(1-(2-morpholino-9H-purin-6-yl)azetidin-2-yl)-3-phenylpyrrolo[2,1-f][1,2,4]triazin-4(3H)-one]
93.2%	28 nM	>100%	1 nM	97.1%	4 nM	N#Cc1c[nH]c2ncnc(N3C[C@@H](F)C[C@H]3c3nn4ccc(Cl)c4c(=O)n3-c3ccccn3)c12 [Compound 345]
17.8%	–	97.8%	18 nM	33.3%	–	CC(Nc1ncnc2[nH]cc(C#N)c12)c1cc2c(Cl)cc(Cl)n2c(=O)n1-c1cccc(F)c1 (centres unmarked) [Compound 129]
80.7%	213 nM	98.9%	5 nM	95.9%	32 nM	CC(=O)Nc1c[nH]c2ncnc(N3CCC[C@H]3c3nn4ccc(Cl)c4c(=O)n3-c3ccccc3)c12 [Compound 307, (S)—N-(4-(2-(5-chloro-4-oxo-3-phenyl-3,4-dihydropyrrolo[2,1-f][1,2,4]triazin-2-yl)pyrrolidin-1-yl)-7H-pyrrolo[2,3-d]pyrimidin-5-yl)acetamide]
47.3%	–	>100%	26 nM	84.7%	152 nM	O=c1c2c(Cl)ccn2nc([C@@H]2C[C@@H](F)CN2c2ncnc3[nH]cnc23)n1-c1ccccc1 [Compound 47]
17.1%	–	59.5%	2000 nM	94.6%	34 nM	C[S+]([O-])c1c[nH]c2ncnc(N3CC[C@H]3c3nn4ccc(Cl)c4c(=O)n3-c3ccc(F)cc3)c12 (some centres unmarked) [Compound 199]
92.3%	61 nM	>100%	1 nM	>100%	14 nM	COc1ccc(-c2c[nH]c3ncnc(N4CC[C@H]4c4nn5ccc(Cl)c5c(=O)n4-c4ccccc4)c23)cn1 [Compound 102]
73.4%	250 nM	99.5%	2 nM	97.2%	1 nM	Nc1nc2c(c(N3CCCC3c3cn4ccc(Cl)c4c(=O)n3-c3ccccc3)n1)C(=O)CCN2 (centres unmarked) [Compound 327]
37.1%	–	98.2%	13 nM	88.3%	239 nM	O=c1c2c(Cl)ccn2nc([C@@H]2CC(F)(F)CN2c2ncnc3[nH]cnc23)n1-c1ccccc1 [Compound 57]
>100%	38 nM	>100%	0.5 nM	98.4%	8 nM	N#Cc1ncc(-c2c[nH]c3ncnc(N4CC[C@H]4c4nn5ccc(F)c5c(=O)n4-c4ccccc4)c23)cn1 [Compound 184]
41.5%	–	98.8%	27 nM	89.5%	170 nM	CC(C)Cn1c([C@@H]2CCN2c2ncnc3[nH]cc(C#N)c23)nn2ccc(Cl)c2c1=O [Compound 259]
42.3%	–	>100%	5 nM	>100%	21 nM	Nc1ccc(-c2n[nH]c3ncnc(N4CCC[C@H]4c4nn5ccc(Cl)c5c(=O)n4-c4ccccc4)c23)cn1 [Compound 167]
39.6%	–	98.0%	40 nM	90.9%	163 nM	CC(C)Cn1c([C@@H]2CCN2c2nc(N)ncc2C#N)nn2ccc(Cl)c2c1=O [Compound 260]
50.4%	–	88.3%	102 nM	56.3%	–	CN(C)CCn1c([C@@H]2CCCN2c2ncnc3[nH]cnc23)nn2ccc(Cl)c2c1=O [Compound 251]
83.2%	137 nM	>100%	1 nM	97.7%	6 nM	N#Cc1c[nH]c2ncnc(N3CCC[C@H]3c3nn4ccc(Cl)c4c(=O)n3C3CCC3)c12 [Compound 162]
